Test results published in US8460669B2, “Compositions and methods for identifying response targets and treating flavivirus infection responses” (Academia Sinica, priority 2005, dated 2013).

Columns and labels:
Details in all cases: sugar 1 mg/ml
MMR.Fc = molecular target: T1, MMR.Fc (Homo sapiens, UniProt P22897); experiment: Sugar competition EIA, MMR.Fc binding to GLPS-F3
T1 construct: The extracellular domains of lectin receptors, TREMs and TLTs were cloned by the reverse-transcriptase polymerase chain reaction (RT-PCR); made in house; host or cells: 293-F (FreeStyle 293) cells
T1 sequence (P22897 19-1389 limits assumed): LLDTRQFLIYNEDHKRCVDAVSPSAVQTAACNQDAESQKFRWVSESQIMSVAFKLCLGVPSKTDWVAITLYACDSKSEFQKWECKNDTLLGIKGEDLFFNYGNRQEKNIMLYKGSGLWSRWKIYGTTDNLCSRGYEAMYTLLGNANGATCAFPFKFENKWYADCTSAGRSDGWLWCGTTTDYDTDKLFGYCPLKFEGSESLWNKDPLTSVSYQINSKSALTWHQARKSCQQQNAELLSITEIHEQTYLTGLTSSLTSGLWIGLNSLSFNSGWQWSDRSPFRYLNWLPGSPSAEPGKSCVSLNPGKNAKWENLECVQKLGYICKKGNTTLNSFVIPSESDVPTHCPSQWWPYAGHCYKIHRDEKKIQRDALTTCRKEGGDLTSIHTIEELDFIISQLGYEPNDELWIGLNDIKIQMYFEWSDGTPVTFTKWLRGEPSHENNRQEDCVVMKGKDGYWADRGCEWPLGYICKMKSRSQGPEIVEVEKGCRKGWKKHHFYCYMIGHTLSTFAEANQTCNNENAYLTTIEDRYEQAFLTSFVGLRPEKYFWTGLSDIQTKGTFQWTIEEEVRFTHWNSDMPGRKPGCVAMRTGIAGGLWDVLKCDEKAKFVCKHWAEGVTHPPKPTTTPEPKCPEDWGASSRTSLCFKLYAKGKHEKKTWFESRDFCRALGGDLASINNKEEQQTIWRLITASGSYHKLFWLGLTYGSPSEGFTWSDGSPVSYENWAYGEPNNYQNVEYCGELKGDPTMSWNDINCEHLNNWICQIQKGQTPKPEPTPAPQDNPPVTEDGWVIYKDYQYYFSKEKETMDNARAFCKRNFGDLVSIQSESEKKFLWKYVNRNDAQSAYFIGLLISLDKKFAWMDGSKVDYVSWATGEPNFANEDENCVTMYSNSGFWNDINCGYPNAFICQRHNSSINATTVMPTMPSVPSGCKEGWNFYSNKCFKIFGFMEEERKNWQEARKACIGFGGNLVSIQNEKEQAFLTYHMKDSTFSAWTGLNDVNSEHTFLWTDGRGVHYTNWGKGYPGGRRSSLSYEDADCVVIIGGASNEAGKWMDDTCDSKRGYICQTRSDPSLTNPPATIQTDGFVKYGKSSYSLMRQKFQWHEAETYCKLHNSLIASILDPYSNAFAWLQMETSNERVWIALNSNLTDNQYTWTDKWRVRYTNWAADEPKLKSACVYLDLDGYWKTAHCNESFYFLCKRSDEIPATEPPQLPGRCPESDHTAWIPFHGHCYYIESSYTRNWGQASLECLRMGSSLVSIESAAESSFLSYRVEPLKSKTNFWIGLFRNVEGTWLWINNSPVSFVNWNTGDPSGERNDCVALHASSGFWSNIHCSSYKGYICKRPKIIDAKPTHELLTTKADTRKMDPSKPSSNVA
Procedure: (§1) The interaction between GLPS-F3 and receptor.Fc was then tested. Unbiotinylated GLPS-F3 was immobilized at 100 ng/well as described above, and 100 μL receptor.Fc fusion protein (1 μg/ml in 2 mM MgCl2/2 mM CaCl2/1% BSA/TBST) was added into each well and incubated for 1 hour at room temperature. After washing with TBST, wells were incubated with peroxidase-conjugated goat anti-human IgG Ab (1:5000 dilution, Jackson ImmunoResearch Laboratories) in blocking buffer at room temperature for 30 min. Wells were incubated with 100 μL TMB substrate for 15 min after TBST washing and read at 450 nm in a Fusion plate reader (Perkin Elmer). The results were normalized with respect to Fc.Dectin-1 binding (Dectin-1 is a known lectin receptor that binds to β-1,3-glucan which is the backbone found in GLPS-F3). FIG. 6B depicts in graphical form the affinity of each receptor for GLPS-F3 relative to Dectin-1. […] There was also weaker but positive GLPS-F3 binding ability (25-50% binding intensity compared to Fc.dectin-1) found in Fc.NKG2D, Fc.MINCLE, Fc.mKCR, DCAL1.Fc, DEC205.Fc, Endo180.Fc and NKp30(NCR3).Fc.
(§2) To understand the interaction of GLPS-F3 with specific innate immunity receptors, the polysaccharides mannan and β-glucan and the monosaccharides D-mannose (Man), D-glucose (Glc), N-acetyl-glucosamine (GlcNAc), D-galactose (Gal), N-acetyl-galactosamine (GalNAc), L-fucose (Fuc) and sialic acid, were used in a competition assay. […] The assays were carried out as in Example 9, with the addition of 1 mg/ml of each polysaccharide or monosaccharide.

CLEC-2 = molecular target: T2, CLEC-2 (Homo sapiens, UniProt Q9P126); experiment: Sugar competition EIA, Fc.CLEC-2 binding to GLPS-F3
T2 construct: The extracellular domains of lectin receptors, TREMs and TLTs were cloned by the reverse-transcriptase polymerase chain reaction (RT-PCR); made in house; host or cells: 293-F (FreeStyle 293) cells
T2 sequence (Q9P126 55-229 limits assumed): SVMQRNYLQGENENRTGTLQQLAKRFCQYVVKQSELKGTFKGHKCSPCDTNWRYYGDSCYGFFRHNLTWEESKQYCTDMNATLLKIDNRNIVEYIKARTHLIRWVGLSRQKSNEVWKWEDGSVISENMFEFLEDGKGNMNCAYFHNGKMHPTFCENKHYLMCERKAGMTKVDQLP
Procedure: as §1, §2

DC-SIGN = molecular target: T3, DC-SIGN (Homo sapiens, UniProt Q9NNX6); experiment: Sugar competition EIA, Fc.DC-SIGN binding to GLPS-F3
T3 construct: The extracellular domains of lectin receptors, TREMs and TLTs were cloned by the reverse-transcriptase polymerase chain reaction (RT-PCR); made in house; host or cells: 293-F (FreeStyle 293) cells
T3 sequence (Q9NNX6 59-404 limits assumed): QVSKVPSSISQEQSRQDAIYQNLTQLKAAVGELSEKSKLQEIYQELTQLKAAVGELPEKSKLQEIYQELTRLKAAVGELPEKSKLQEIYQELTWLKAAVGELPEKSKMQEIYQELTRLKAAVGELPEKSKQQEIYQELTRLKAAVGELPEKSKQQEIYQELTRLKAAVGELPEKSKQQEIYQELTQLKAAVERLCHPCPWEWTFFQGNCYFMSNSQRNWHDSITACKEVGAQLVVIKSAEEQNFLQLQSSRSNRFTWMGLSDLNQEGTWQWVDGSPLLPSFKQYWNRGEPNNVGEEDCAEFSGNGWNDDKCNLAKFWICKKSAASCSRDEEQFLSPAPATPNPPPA
Procedure: as §1, §2

Dectin-1 = molecular target: T4, Dectin-1 (Homo sapiens, UniProt Q9BXN2); experiment: Sugar competition EIA, Fc.Dectin-1 binding to GLPS-F3
T4 construct: The extracellular domains of lectin receptors, TREMs and TLTs were cloned by the reverse-transcriptase polymerase chain reaction (RT-PCR); made in house; host or cells: 293-F (FreeStyle 293) cells
T4 sequence (Q9BXN2 66-247 limits assumed): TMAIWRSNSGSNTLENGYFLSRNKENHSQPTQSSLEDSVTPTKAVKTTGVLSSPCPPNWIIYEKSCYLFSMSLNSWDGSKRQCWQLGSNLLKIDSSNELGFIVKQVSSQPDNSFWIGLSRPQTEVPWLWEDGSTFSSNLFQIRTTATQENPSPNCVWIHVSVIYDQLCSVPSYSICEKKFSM
Procedure: as §1, §2

TLR4.Fc = molecular target: T5, TLR4.Fc (Homo sapiens, UniProt O00206); experiment: Sugar competition EIA, TLR4.Fc binding to GLPS-F3
T5 construct: The extracellular domains of several innate immunity receptors from immune cells were cloned by reverse-transcription polymerase chain reaction (RT-PCR); made in house; host or cells: 293-F (FreeStyle 293) cells
T5 sequence (O00206 24-631 limits assumed): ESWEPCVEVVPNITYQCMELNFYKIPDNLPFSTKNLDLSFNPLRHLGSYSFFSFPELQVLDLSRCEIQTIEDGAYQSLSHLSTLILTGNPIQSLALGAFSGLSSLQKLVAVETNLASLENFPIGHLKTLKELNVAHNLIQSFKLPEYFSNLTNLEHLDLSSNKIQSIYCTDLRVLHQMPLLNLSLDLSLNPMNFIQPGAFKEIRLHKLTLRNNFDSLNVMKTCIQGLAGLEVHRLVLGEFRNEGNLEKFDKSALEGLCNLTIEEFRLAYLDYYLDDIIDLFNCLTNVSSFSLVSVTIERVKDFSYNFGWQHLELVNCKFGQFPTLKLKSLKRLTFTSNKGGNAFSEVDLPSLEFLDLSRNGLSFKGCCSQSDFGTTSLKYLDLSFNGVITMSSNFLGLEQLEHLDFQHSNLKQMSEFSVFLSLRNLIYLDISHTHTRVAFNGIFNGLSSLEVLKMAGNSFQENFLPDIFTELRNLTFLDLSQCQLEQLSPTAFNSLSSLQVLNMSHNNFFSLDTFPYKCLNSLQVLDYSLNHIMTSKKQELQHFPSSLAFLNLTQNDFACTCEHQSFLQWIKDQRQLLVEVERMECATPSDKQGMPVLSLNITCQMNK
Procedure: as §1, §2

Molecule | Percentage of binding of MMR.Fc to GLPS-F3 relative to binding in absence of sugar competitor (MMR.Fc) [%] | inhibition of interaction between GLPS-F3 and MMR.Fc (MMR.Fc) [%] | Percentage of binding of CLEC-2 Fc fusion to GLPS-F3 relative to binding in absence of sugar competitor (CLEC-2) [%] | Percentage of binding of DC-SIGN Fc fusion to GLPS-F3 relative to binding in absence of sugar competitor (DC-SIGN) [%] | inhibition of binding of Fc.DC-SIGN to GLPS-F3 (DC-SIGN) [%] | Percentage of binding of Dectin-1 Fc fusion to GLPS-F3 relative to binding in absence of sugar competitor (Dectin-1) [%] | Percentage of binding of TLR4.Fc to GLPS-F3 relative to binding in absence of sugar competitor (TLR4.Fc) [%] | inhibition of TLR4.Fc and GLPS-F3 interaction (TLR4.Fc) [%] | inhibition of interaction between GLPS-F3 and Fc.Dectin-1 (Dectin-1) [%]
mannan | 2 ± 0.5 | 98 | 88 ± 6.3 | 2 ± 0.5 | 98 | 82 ± 0.2 | 28 ± 6.3 | 72 | 
β-1,3-glucan [b-glucan] | 100 ± 4.2 |  | 95 ± 5.1 | 81 ± 1.4 |  | 42 ± 0.3 | 96 ± 4.0 |  | 58
C[C@H](O)[C@@H](O)[C@@H](O)[C@H](O)C=O [Fuc, L-fucose] | 12 ± 2.0 | 88 | 91 ± 8.5 | 8 ± 1.8 | 92 | 92 ± 5.2 | 56 ± 1.9 | 44 | 
